In ChEMBL document CHEMBL1139296, “Pleuromutilin derivatives having a purine ring. Part 2: influence of the central spacer on the antibacterial activity against Gram-positive pathogens” (2009):

Tests used:
Format in all cases: functional
[1] = test system: Staphylococcus aureus; experiment: Antimicrobial activity against methicillin-susceptible Staphylococcus aureus Smith by NCCLS method
[2] = test system: Staphylococcus aureus; experiment: Antimicrobial activity against methicillin-resistant Staphylococcus aureus KMP9
[3] = test system: Staphylococcus aureus; experiment: Antimicrobial activity against methicillin-susceptible Staphylococcus aureus infected mouse assessed as survival rate administered iv after 1 hr of infection
[4] = test system: Moraxella catarrhalis; experiment: Antimicrobial activity against Moraxella catarrhalis K1209 by NCCLS method
[5] = test system: Streptococcus pyogenes; experiment: Antimicrobial activity against Streptococcus pyogenes […] by NCCLS method
[6] = test system: Enterococcus faecium; experiment: Antimicrobial activity against vancomycin-resistant Enterococcus faecium KU1778 by NCCLS method
[7] = test system: Streptococcus pneumoniae; experiment: Antimicrobial activity against penicillin-susceptible Streptococcus pneumoniae ATCC 49619 by NCCLS method
[8] = test system: Streptococcus pneumoniae; experiment: Antimicrobial activity against penicillin-resistant Streptococcus pneumoniae KT2524 by NCCLS method
[9] = test system: Haemophilus influenzae; experiment: Antimicrobial activity against Haemophilus influenzae TH13 by NCCLS method

SMILES | MIC [1] [µg/mL] | MIC [2] [µg/mL] | ED50 [3] [mg/kg] | MIC [4] [µg/mL] | MIC [5] [µg/mL] | MIC [6] [µg/mL] | MIC [7] [µg/mL] | MIC [8] [µg/mL] | MIC [9] [µg/mL]
C=C[C@]1(C)C[C@@H](OC(=O)CN2CCN(C(=O)CCn3cnc4c(N5CCC(N)C5)ncnc43)CC2)[C@]2(C)[C@H](C)CC[C@]3(CCC(=O)[C@@H]32)[C@@H](C)[C@@H]1O.Cl.Cl (some centres not stated) | 0.25 | 0.5 | 0.8 | 0.25 | 0.032 | 0.5 | 0.063 | 0.063 | 4
C=C[C@]1(C)C[C@@H](OC(=O)CN(C)CCN(C)C(=O)CCn2cnc3c(N4CCC(N)C4)ncnc32)[C@]2(C)[C@H](C)CC[C@]3(CCC(=O)[C@@H]32)[C@@H](C)[C@@H]1O.Cl.Cl (some centres not stated) | 1 | 4 | > 3.13 | 0.25 | 0.063 | 1 | 0.063 | 0.125 | 8
C=C[C@]1(C)C[C@@H](OC(=O)CSC2CCCN(C(=O)CCn3cnc4c(N5CCNCC5)nc(N)nc43)C2)[C@]2(C)[C@H](C)CC[C@]3(CCC(=O)[C@@H]32)[C@@H](C)[C@@H]1O.Cl (some centres not stated) | 0.5 | 1 | 3.13 | 0.125 | 0.016 | 0.25 | 0.032 | 0.032 | 2
C=C[C@]1(C)C[C@@H](OC(=O)CSCC2CN(C(=O)CCn3cnc4c(N5CCNCC5)nc(N)nc43)CCO2)[C@]2(C)[C@H](C)CC[C@]3(CCC(=O)[C@@H]32)[C@@H](C)[C@@H]1O.Cl (some centres not stated) | 1 | 2 | 4.81 | 0.25 | 0.032 | 0.5 | 0.063 | 0.125 | 8
C=C[C@]1(C)C[C@@H](OC(=O)CS[C@@H]2CCN(C(=O)CCn3cnc4c(N5CCNCC5)nc(N)nc43)C2)[C@]2(C)[C@H](C)CC[C@]3(CCC(=O)[C@@H]32)[C@@H](C)[C@@H]1O.Cl | 0.05 | 2 | 1.28 | 0.25 | 0.032 | 0.5 | 0.063 | 0.125 | 2
C=C[C@]1(C)C[C@@H](OC(=O)CSCCN(C)C(=O)CCn2cnc3c(N4CCC(N)C4)ncnc32)[C@]2(C)[C@H](C)CC[C@]3(CCC(=O)[C@@H]32)[C@@H](C)[C@@H]1O.Cl (some centres not stated) | 0.25 | 0.5 | 1.76 | 0.125 | ≤ 0.004 | 0.063 | 0.016 | 0.016 | 2
C=C[C@]1(C)C[C@@H](OC(=O)CSC2CCN(C(=O)CCn3cnc4c(N5CCNCC5)nc(N)nc43)CC2)[C@]2(C)[C@H](C)CC[C@]3(CCC(=O)[C@@H]32)[C@@H](C)[C@@H]1O.Cl | 0.25 | 0.5 | 1.86 | 0.25 | 0.032 | 0.125 | 0.063 | 0.063 | 1
CC[C@]1(C)C[C@@H](OC(=O)CS(=O)(=O)C2CCN(C(=O)CCn3cnc4c(N5CCC(N)C5)ncnc43)CC2)[C@]2(C)[C@H](C)CC[C@]3(CCC(=O)[C@@H]32)[C@@H](C)[C@@H]1O.Cl (some centres not stated) | 0.5 | 2 | 1.79 | 0.125 | 0.032 | 1 | 0.063 | 0.125 | 4
C=C[C@]1(C)C[C@@H](OC(=O)CS[C@H]2CCN(C(=O)CCn3cnc4c(N5CCNCC5)nc(N)nc43)C2)[C@]2(C)[C@H](C)CC[C@]3(CCC(=O)[C@@H]32)[C@@H](C)[C@@H]1O.Cl | 0.5 | 1 | 3.16 | 0.25 | 0.016 | 0.25 | 0.063 | 0.125 | 2
C=C[C@]1(C)C[C@@H](OC(=O)CNC2CCN(C(=O)CCn3cnc4c(N5CCC(N)C5)ncnc43)CC2)[C@]2(C)[C@H](C)CC[C@]3(CCC(=O)[C@@H]32)[C@@H](C)[C@@H]1O.Cl (some centres not stated) | 0.25 | 2 | 1.75 | 0.25 | 0.063 | 0.5 | 0.125 | 0.125 | 2
C=C[C@]1(C)C[C@@H](OC(=O)CSCCCN(C)C(=O)CCn2cnc3c(N4CCC(N)C4)ncnc32)[C@]2(C)[C@H](C)CC[C@]3(CCC(=O)[C@@H]32)[C@@H](C)[C@@H]1O.Cl (some centres not stated) | 0.125 | 0.25 | 0.86 | 0.063 | 0.008 | 0.063 | 0.016 | 0.016 | 1
C=C[C@]1(C)C[C@@H](OC(=O)CSCC2CCN(C(=O)CCn3cnc4c(N5CCNCC5)nc(N)nc43)CC2)[C@]2(C)[C@H](C)CC[C@]3(CCC(=O)[C@@H]32)[C@@H](C)[C@@H]1O.Cl | 0.25 | 0.5 | 2.77 | 0.125 | 0.016 | 0.063 | 0.032 | 0.032 | 4
C=C[C@]1(C)C[C@@H](OC(=O)CSC2CCN(C(=O)CCn3cnc4c(N5CCC(N)C5)ncnc43)CC2)[C@]2(C)[C@H](C)CC[C@]3(CCC(=O)[C@@H]32)[C@@H](C)[C@@H]1O.Cl (some centres not stated) | 0.063 | 0.125 | 1.47 | 0.032 | 0.016 | 0.032 | 0.016 | 0.032 | 1
CC[C@]1(C)C[C@@H](OC(=O)CSC2CCN(C(=O)CCn3cnc4c(N5CCNCC5)nc(N)nc43)CC2)[C@]2(C)[C@H](C)CC[C@]3(CCC(=O)[C@@H]32)[C@@H](C)[C@@H]1O.Cl | 0.25 | 0.25 | 1.66 | 0.125 | 0.032 | 0.125 | 0.063 | 0.063 | 1
C=C[C@]1(C)C[C@@H](OC(=O)CSC2CN(C(=O)CCn3cnc4c(N5CCNCC5)nc(N)nc43)C2)[C@]2(C)[C@H](C)CC[C@]3(CCC(=O)[C@@H]32)[C@@H](C)[C@@H]1O.Cl | 0.5 | 2 | 4.07 | 0.125 | ≤ 0.004 | 0.5 | 0.125 | 0.25 | 2
C=C[C@]1(C)C[C@@H](OC(=O)CSC2CCCN(C(=O)CCn3cnc4c(N5CCC(N)C5)ncnc43)C2)[C@]2(C)[C@H](C)CC[C@]3(CCC(=O)[C@@H]32)[C@@H](C)[C@@H]1O.Cl (some centres not stated) | 0.25 | 0.5 | 2.02 | 0.063 | 0.008 | 0.063 | 0.016 | 0.016 | 2
C=C[C@]1(C)C[C@@H](OC(=O)CSC2CCN(C(=O)CCn3cnc4c(N5CCNCC5)nc(N)nc43)C2)[C@]2(C)[C@H](C)CC[C@]3(CCC(=O)[C@@H]32)[C@@H](C)[C@@H]1O.Cl (some centres not stated) | 0.25 | 1 | 2.61 | 0.125 | ≤ 0.004 | 0.25 | 0.063 | 0.125 | 1
CC[C@]1(C)C[C@@H](OC(=O)COC2CCN(C(=O)CCn3cnc4c(N5CCC(N)C5)ncnc43)CC2)[C@]2(C)[C@H](C)CC[C@]3(CCC(=O)[C@@H]32)[C@@H](C)[C@@H]1O.Cl (some centres not stated) | 0.25 | 0.5 | 2.04 | 0.125 | 0.032 | 0.125 | 0.032 | 0.063 | 4
